Data: paper PMC9225722, “Synthesis and biological evaluation of thieno[3,2-c]pyrazol-3-amine derivatives as potent glycogen synthase kinase 3β inhibitors for Alzheimer’s disease” (Journal of Enzyme Inhibition and Medicinal Chemistry, 2022)
“Also recorded” adds a separate entry of the source.

Legend:
Type in all cases: cell-based, human
SH-SY5Y cells = test: Cytotoxicity on SH-SY5Y cells (MTT assay)
Method: To evaluate the neuronal cell cytotoxicity of compound 16b, we examined its cytotoxic profile on human neuroblastoma SH-SY5Y cells after incubation for 24 h by the MTT (3-(4,5-dimethylthiazol-2-yl)-2,5-diphenyltetrazolium bromide) assay.
Figure 5. Cell viability of SH-SY5Y cells exposed to compound 16b at different concentrations (range from 3.125 − 50 μM) for 24 h. Vehicle treater cells were used as control. The results were expressed as the percentage of viable cells observed after treatment with compound 16b respect to vehicle-treated cells (100%) and shown as the mean ± SD from at least three separate experiments.
SH-SY5Y cells were cultured in DMEM/F12 (Dulbecco’s modified Eagle medium and Ham’s F-12, 1:1) with 10% FBS (fetal bovine serum), 1% penicillin and 1% streptomycin under 5% CO2 atmosphere at 37 °C. SH-SY5Y cells (1 × 10^5) were seeded in 96-well plates and incubated for 24 h. Different concentrations of compound 16b were added into each well and incubated for another 24 h. The survival of cells was determined by MTT assay and the absorbance of each well were measured using a SpectraMax M5 multimode plate reader at 570 nm. Results were expressed as percentage of control and statistical analysis was performed using GraphPad Prism 5.0 (GraphPad Software Inc., San Diego, CA, USA).

[1] = system: phosphorylation of GSK-3β at Ser9; test: Western blot of p-GSK-3β (Ser9) in SH-SY5Y cells; details: 2.5 h, control 0.33
From the text: GSK-3β is activated by phosphorylation at Tyr216 and is inhibited by phosphorylation at Ser9 [48]. As one of the substrates of Akt (protein kinase B), GSK-3 can inhibit Akt[49]. The inhibition of GSK-3β increases the p-Akt expression and activates the PI3K/Akt pathway, and that, in turn, phosphorylates the GSK-3β at the Ser9 site[50]^,[51]. […] As shown in Figure 6(A), LiCl greatly promoted GSK-3β phosphorylation at Ser9 (p-GSK-3β/GAPDH: 0.60 vs 0.33). […] Therefore, in cellular level, compound 16b was confirmed to have a direct effect on GSK-3β.
Figure 6. (A) The effect of 16b on phosphorylation of GSK-3β at Ser9; (B) the effect of 16b on β-catenin abundance. Protein expressions were detected by immunoblot analysis with a specific antibody. Values are reported as the mean ± SD of three independent experiments. *p < 0.05, **p < 0.01, ***p < 0.001 vs control.
SH-SY5Y cells (1 × 10^6) were seeded in 12-well plates (Corning, Los Altos, MA, USA) and incubated with compound 16b or LiCl at the indicated concentrations for 2.5 h at 37 °C in 5% CO2. At the end of incubation, cells were lysed by addition of ice-cold RIPA buffer containing a protease inhibitor cocktail. The protein quantification was determined using a BCA protein assay kit (Jiangsu KeyGEN BioTECH Co., Ltd., Nanjing, China). Cellular lysates were mixed with an equal volume of SDS (sodium dodecyl sulfate) loading buffer (Jiangsu KeyGEN BioTECH Co., Ltd., Nanjing, China) and separated by electrophoresis (Bio-rad Power Supplies Basic, Shanghai, China) in polyacrylamide gel. Proteins were transferred from acrylamide gels to nitrocellulose membranes and blocked in a blocking buffer (PBS, 5% non-fat milk) for 1.5 to 2 h at 20 °C. […] The blots were washed by TBST for 20 min and detected with ECL chemiluminescent reagent (Jiangsu KeyGEN BioTECH Co., Ltd., Nanjing, China) for 3 min. Pixel intensity was quantitated using gel imaging system (SYNGENE G:BOX/iChemi XR5, ISS, San Diego, CA, US) and Gel-Pro32 software (Media Cybernetics, Bethesda, MD, USA). […]

[2] = system: tau phosphorylation at Ser396; test: Inhibition of Aβ-induced tau hyperphosphorylation (Western blot) in SH-SY5Y cells; details: 20 μM Aβ25-35 stimulated (Aβ25-35 alone 0.83)
Method: GSK-3β phosphorylates tau at sites (Ser199, Ser396, and Ser443), and the hyperphosphorylated tau aggregate into NFTs in AD[63]. Inhibition of GSK-3β could reduce tau hyperphosphorylation. Therefore, the cell-based assay examining Aβ-induced tau phosphorylation at Ser396 represents a direct functional assay to measure the cellular activity of GSK-3β inhibitors. To investigate the effect of 16b on tau phosphorylation, Western blot analysis was carried out to check Aβ-induced tau protein hyperphosphorylation at Ser396 in SH-SY5Y cells, using LiCl as the control. […] At the concentration of 5 μM, 10 μM and 20 μM, 16b decreased the phosphorylation tau level to 0.70, 0.52, 0.40, respectively.
Figure 7. Inhibition of Aβ-induced tau phosphorylation by 16b in SH-SY5Y cells. Values are reported as the mean ± SD of three independent experiments. *p < 0.05, **p < 0.01, ***p < 0.001 vs control.
SH-SY5Y cells were seeded in 12-well plates until 80% confluence, serum-deprived for 12 h. Cells were pre-incubated with compound 16b or LiCl for 1 h, thereafter stimulated with Aβ25–35 (Sigma) for another 6 h. According to the previously reported method[64]^,[75], the phosphorylated tau was determined.

Q: How did the “non-cytotoxic concentration as fold of the IC50 value of GSK-3β inhibitory activity” value (SH-SY5Y cells; 50 μM versus GSK-3β IC50) turn out when `CC(C)C(=O)Nc1n[nH]c2cc(-c3cccnc3)sc12` [Compound 16b, N-(5-(pyridin-3-yl)-1H-thieno[3,2-c]pyrazol-3-yl)isobutyramide] was run?
A: Its value is > 16000 fold.

Q: And the “cytotoxicity on SH-SY5Y cells” value (SH-SY5Y cells; concentration up to 50 μM (3.125-50 μM), 24 h, MTT)?
A: The value was “no toxicity; also recorded: no significant cytotoxicity”.

Q: What about the “p-GSK-3β/GAPDH ratio (Ser9)” value ([1]; 10 μM) of the same compound?
A: Its value is 0.41.

Q: What about the “p-GSK-3β/GAPDH ratio (Ser9)” value ([1]; 20 μM) of the same compound?
A: Its value is 0.50.

Q: And the “p-tau/GAPDH ratio (Ser396)” value ([2]; 5 μM)?
A: The value was 0.70.

Q: And the “p-tau/GAPDH ratio (Ser396)” value ([2]; 10 μM)?
A: Its value is 0.52.

Q: And the “p-tau/GAPDH ratio (Ser396)” value ([2]; 20 μM)?
A: The value was 0.40.
